Source: ChEMBL document CHEMBL1201862, “PubChem BioAssay data set” (2004)
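Interpolation was linear, between the two tested concentrations surrounding the appropriate level; five concentrations were tested over 48 hours in 96-well plates. GI50: concentration for 50% inhibition of growth.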 Calls of active or inactive are those of the source. Rule as the data show it: active = GI50 up to about 1.1 µM and inactive = higher.

What was measured:
Assay in all cases: inhibition of tumour cell growth, NCI panel, 48 h
A549 = test system: A549
ACHN = test system: ACHN
HCT-15 = test system: HCT-15
HOP-62 = test system: HOP-62
HOP-92 = test system: HOP-92
IGROV-1 = test system: IGROV-1
KM12 = test system: KM12
NCI-H522 = test system: NCI-H522
PC-3 = test system: PC-3
RXF 393 = test system: RXF 393
SK-MEL-28 = test system: SK-MEL-28
SK-MEL-2 = test system: SK-MEL-2
SK-MEL-5 = test system: SK-MEL-5
SNB-75 = test system: SNB-75
UO-31 = test system: UO-31
Hs-578T = test system: Hs-578T
OVCAR-5 = test system: OVCAR-5
SF-268 = test system: SF-268
BT-549 = test system: BT-549

| SMILES | GI50 (A549) | GI50 (ACHN) | GI50 (HCT-15) [µM] | GI50 (HOP-62) | GI50 (HOP-92) | GI50 (IGROV-1) | GI50 (KM12) | GI50 (NCI-H522) | GI50 (PC-3) | GI50 (RXF 393) | GI50 (SK-MEL-28) | GI50 (SK-MEL-2) | GI50 (SK-MEL-5) | GI50 (SNB-75) | GI50 (UO-31) | GI50 (Hs-578T) | GI50 (OVCAR-5) | GI50 (SF-268) | GI50 (BT-549) |
| --- | --- | --- | --- | --- | --- | --- | --- | --- | --- | --- | --- | --- | --- | --- | --- | --- | --- | --- | --- |
| CO[C@@](c1ccccc1)(c1nc(C#N)c(N)o1)C(F)(F)F | > 100 µM (inactive) | > 100 µM (inactive) | 85.9 | > 100 µM (inactive) | 44.7 µM (inactive) | > 100 µM (inactive) | > 100 µM (inactive) | 26.6 µM (inactive) | > 100 µM (inactive) | > 100 µM (inactive) | > 100 µM (inactive) | > 100 µM (inactive) | > 100 µM (inactive) | 20.5 µM (inactive) | 68.1 µM (inactive) |  |  |  |  |
| COc1ccc(/C=C2\CCC(C)C3=C2N=c2s/c(=C/c4cccc(Br)c4)c(=O)n2C3c2ccc(OC)c(OC)c2)cc1OC (stereo not given) | > 100 µM (inactive) | > 100 µM (inactive) | > 100 | > 100 µM (inactive) | > 100 µM (inactive) | > 100 µM (inactive) | > 100 µM (inactive) |  | > 100 µM (inactive) | > 100 µM (inactive) | > 100 µM (inactive) | > 100 µM (inactive) | > 100 µM (inactive) |  |  | > 100 µM (inactive) | > 100 µM (inactive) | > 100 µM (inactive) |  |
| CCC(C)N1CN(c2ccccc2)C2(CCN(CCCSc3ccc(F)cc3)CC2)C1=O (stereo not given) | 3.94 µM (inactive) | 3.15 µM (inactive) | 1.75 | 2.11 µM (inactive) |  | 4.31 µM (inactive) | 3.92 µM (inactive) | 5.97 µM (inactive) | 6.35 µM (inactive) | 2.84 µM (inactive) | 11.6 µM (inactive) |  | 1.96 µM (inactive) | 11.1 µM (inactive) | 2.42 µM (inactive) |  | 2.1 µM (inactive) | 6.75 µM (inactive) | 1.66 µM (inactive) |
| CCn1c(=O)c2nc(SC)sc2n(-c2ccc(C)cc2)c1=O | > 100 µM (inactive) | > 100 µM (inactive) | > 100 | > 100 µM (inactive) | > 100 µM (inactive) | > 100 µM (inactive) | 88.9 µM (inactive) | > 100 µM (inactive) | > 100 µM (inactive) | > 100 µM (inactive) | > 100 µM (inactive) | 66.4 µM (inactive) | > 100 µM (inactive) | 29.4 µM (inactive) | 32.1 µM (inactive) | 21.3 µM (inactive) | > 100 µM (inactive) | > 100 µM (inactive) |  |
| CCN1CCN=C2c3cc(OC)ccc3Nc3c([N+](=O)[O-])ccc1c32 | 0.667 µM (active) |  | 1.21 | 0.634 µM (active) | 0.622 µM (active) | 1.67 µM (inactive) | 0.713 µM (active) |  | 1 µM (active) | 0.556 µM (active) | 2.32 µM (inactive) |  | 1.17 µM (inactive) | 1.68 µM (inactive) |  |  |  | 0.443 µM (active) |  |
| Oc1nc2nc3ccccc3nc2nc1O | > 100 µM (inactive) | > 100 µM (inactive) | > 100 | > 100 µM (inactive) | > 100 µM (inactive) | > 100 µM (inactive) | > 100 µM (inactive) | > 100 µM (inactive) | > 100 µM (inactive) | > 100 µM (inactive) | > 100 µM (inactive) | > 100 µM (inactive) | > 100 µM (inactive) | 75.2 µM (inactive) | > 100 µM (inactive) | > 100 µM (inactive) | > 100 µM (inactive) | > 100 µM (inactive) |  |
| CC1N[B@@-](C)(c2ccc(C(F)(F)F)cc2)OC1c1ccccc1 (stereo not given in full) | > 100 µM (inactive) | 36.9 µM (inactive) | 49.1 | > 100 µM (inactive) | 20.4 µM (inactive) | > 100 µM (inactive) |  |  | 53.3 µM (inactive) |  | > 100 µM (inactive) |  | 87.7 µM (inactive) | 32.6 µM (inactive) | 34.7 µM (inactive) |  | > 100 µM (inactive) | > 100 µM (inactive) | > 100 µM (inactive) |
| CC#CC1/C(=C\C(=O)OC)CCCC1O (stereo not given) | > 100 µM (inactive) | > 100 µM (inactive) | > 100 | > 100 µM (inactive) |  |  | > 100 µM (inactive) | > 100 µM (inactive) |  | > 100 µM (inactive) | > 100 µM (inactive) | > 100 µM (inactive) | > 100 µM (inactive) | > 100 µM (inactive) | > 100 µM (inactive) |  | > 100 µM (inactive) | > 100 µM (inactive) |  |
| Cc1cc(-c2nc3ccccc3s2)ccc1NS(=O)(=O)O | > 5.82 µM (inactive) | > 7.78 µM (inactive) | > 4.65 |  |  | 1.11 µM (active) | > 4.65 µM (inactive) |  |  |  | > 42 µM (inactive) |  | > 100 µM (inactive) | > 67 µM (inactive) | > 7.82 µM (inactive) | > 6.28 µM (inactive) | > 4.65 µM (inactive) | > 9.64 µM (inactive) | 0.544 µM (active) |
